Measured values: article PMC7961786, “Magic Peptide: Unique Properties of the LRR11 Peptide in the Activation of Leukotriene Synthesis in Human Neutrophils” (International Journal of Molecular Sciences, 2021)

B1: HMGB1: High-Mobility Group Box 1 (HMGB1) protein, a DAMP (protein, UniProt P09429 1-215, looked up)
High mobility group protein B1: MGKGDPKKPRGKMSSYAFFVQTCREEHKKKHPDASVNFSEFSKKCSERWKTMSAKEKGKFEDMAKADKARYEREMKTYIPPKGETKKKFKDPNAPKRPPSAFFLFCSEYRPKIKGEHPGLSIGDVAKKLGEMWNNTAADDKQPYEKKAAKLKEKYEKDIAAYRAKGKPDAAKKGVVKAEKSKKKKEEEEDEEDEEDEEEEEDEEDEDEEEDDDDE

Assays:
5′-biotinylated B-CpG = assay: TSM acoustic biosensor, peptide binding to immobilized B-CpG
Excerpt: To characterize the interaction of the studied synthetic ODNs with the LRR11 peptide, we applied the thickness shear mode (TSM) acoustic biosensor method, which is based on the investigation of ultrasonic waves in piezoelectric materials such as AT-cut quartz. This approach involved immobilizing a 5′-biotinylated ODN on the surface of TSM transducer covered by NeutrAvidin and then adding the LRR11 peptide. An unrelated peptide (URP) with a random primary structure ([…]) was used as a negative control. The measurement procedure was divided into several steps, in which each immobilization stage was followed by washing with an appropriate buffer solution; when peptide solutions at different concentrations (from 1 to 100 nM) were added to the surface-modified TSM transducer, a wash with Hanks buffer was used before increasing the peptide concentration.
Based on Langmuir isotherm Equation (1), (1) Δfcc=Δfsmaxc/KD+c where Δfs(c) is the frequency change at a certain peptide concentration under equilibrium conditions, (Δfs)max is the maximum frequency change, c is the peptide concentration, and KD is the equilibrium constant of dissociation, we estimated the (Δfs)max and KD values for binding of the LRR11 peptide to C-CpG and B-CpG (Table 3).
Eight MHz AT-cut piezoelectric quartz crystal transducer was obtained from CH Instruments, Austin, TX, USA. The transducer was covered on both sides with thin layers of gold that served as electrodes (working area 0.2 cm^2). Prior ODNs immobilization, the crystal was carefully cleaned with basic Piranha solution (29% NH3, 30% H2O and H2O2 with volumetric 1:5:1 ratio, respectively) for 25 min. After the thorough cleaning, the crystal was positioned between two silicon O-rings in a flow-through cell. The analyte was injected into the cell using a Genie Plus syringe pump (Kent Scientific, Torrington, CT, USA) at a flow rate of 50 μL/min. Each solution was applied until the resonance frequency stabilized. The surface of the transducer was first washed with deionized water, and then 125 μg/mL NeutrAvidin (WWR International GmbH, Vienna, Austria) solution in water was applied. Approximately 15 min were required to stabilize the signal at a constant NeutrAvidin flow rate. This was followed by washing with water to rinse out all non-chemisorbed NeutrAvidin molecules. Immobilization of ODN on the gold surface of the crystals is accomplished using avidin–biotin interactions. A 1 μM 5′-biotinylated ODN solution was injected over the neutravidin-modified surface and subsequently the crystal was washed again with water. The system was then equilibrated using Hanks buffer solution. This buffer was suitable for studying LRR11–ODN binding. Then LRR11 was used at concentrations of 1, 5, 10, 50 and 100 nM […] in Hanks buffer. After each addition of LRR11, the sensor surface was washed with Hanks buffer and LRR11 with the higher concentration was added. All binding experiments were carried out at room temperature. Buffer and sample solutions were introduced in a flow-through format. A network analyzer 8712ES (Agilent Technologies, Santa Clara, CA, USA) was used to measure the impedance properties of the sensor and determine fS and Rm.

[1] = tested on: human neutrophils (PMNLs), 5-LOX product synthesis; assay: 5-LOX metabolite synthesis in human neutrophils stimulated with opsonized S. typhimurium (HPLC); assay type: cell-based
Procedure: Figure 1 Effects of LRR11 and ODNs on the formation of LTB4 (A,B) and the sum of 5-LOX metabolites (ω-OH-LTB4, LTB4 and its isomers, and 5-HETE) (C) in human PMNLs. PMNLs (2 × 10^7) were incubated for 15 min at 37 °C without (black bars) or with 1 μM LRR11 (A, LRR11_first); then ODNs and LRR11 or LPS were added; various ways of adding ODN and LRR11 peptide are indicated. In control samples, Hanks’ solution was added instead of ODNs. After 20 min, 0.5 × 10^9 S. typhimurium bacterial cells were added for a further 15 min. The 5-LOX products were determined using HPLC. Values indicate mean ± SEM of five independent experiments performed in duplicate. * p < 0.05, ** p < 0.01, *** p < 0.005, compared with the control. # p < 0.05, ## p < 0.01 for pairs of data compared as indicated by two-way ANOVA followed by Tukey’s multiple comparison test.
Figure 3 Synthesis of the 5-LOX metabolites in PMNLs exposed to opsonized S. typhimurium bacteria in the presence of the RAGE antagonist FPS-ZM1. PMNLs (2 × 10^7) were incubated for 15 min at 37 °C without additives or with 0.15 µM FPS-ZM1, for the next 20 min the mixture was incubated with 1 µM ODNs without (black bars) or with 1 µM LRR11 (gray bars) before adding 5 × 10^8 S. typhimurium for 15 min. In control samples, Hanks’ solution was added instead of ODNs. The 5-LOX products were determined using HPLC. Graphical data are presented for LTB4 (A) or the sum of LTB4 and its isomers, ω-OH-LTB4 and 5-HETE, designed as Σ5LOX products (B).
Human neutrophils were isolated from freshly taken citrate-anticoagulated peripheral blood from healthy individuals using standard methods. Leukocyte-rich plasma was prepared by sedimentation of erythrocytes with 3% dextran T-500 at room temperature. For purification of granulocytes, centrifugation through Ficoll-Paque (density 1.077 g/mL) was used, followed by hypotonic lysis of the remaining erythrocytes. […] All methods were performed in accordance with the relevant instructions and regulations of the Ministry of Health of the Russian Federation and local legislation.
Bacteria (S. typhimurium IE 147 strain) obtained from the Collection of Gamaleya National Research Center of Epidemiology and Microbiology (Moscow, Russia) were grown in Luria–Bertani broth to a concentration of 1 × 10^9 colony-forming units (CFU)/mL. The bacteria were collected by centrifugation at 2000 g and opsonized immediately before the experiment for 30 min in 20% (v/v) fresh serum from the same donor whose blood was used to isolate neutrophils. Repeated centrifugation in Dulbecco’s solution was used to wash the bacteria.
The cell suspension (2 × 10^7 PMNLs in HBSS/HEPES, reaction volume of 6 mL) was cultured for 15 min in an incubator at 37 °C, 5% CO2. Then 1.0 µM ODN with or without 1.0 µM LRR11, or 2 µg/mL LPS, was added as indicated. After 20 min, the cells were stimulated with S. typhimurium (the ratio of bacteria to PMNLs was approximately 20:1) for the next 15 min [3]. The synthesis of 5-LOX metabolites was stopped by adding an equal volume of methanol at −20 °C with prostaglandin B2 as an internal standard. Samples were stored at −20 °C. The denatured cell suspension was centrifuged, and supernatants designated as water/methanol extracts.
To purify the water/methanol extracts, solid-phase extraction was used on Sep-Pak C18 cartridges (500 mg; Macherey-Nagel, Dueren, Germany), which were conditioned first with methanol, and then with water. Major 5-LOX metabolites were identified by comparing retention times with those of known compounds, as previously described.
Table S1. Effect of Chloroquine on 5-LOX product formation in PMNLs after ODN priming followed by the addition
of opsonized S. typhimurium bacteria.

RAGE = conditions: ref [53]; cited from earlier work
Excerpt: Most likely, CpG-ODN can serve as a linker between various receptor molecules of neutrophils. We hypothesize that some receptors on the cell surface have a multivalent ability to bind a broad spectrum of ligands, including ODNs, and that the stimulatory action of LRR11 on the CpG-ODNs may be related to cooperation with other receptors on the neutrophil surface.

[2] = tested on: human monocytes, leukotriene production; conditions: RAGE-dependent pathway; ref [55]; cited from earlier work
Excerpt: (§1) RAGE is shown to bind molecules, known as damage-associated molecular patterns (DAMPs), released by cells that die or are under conditions of inflammation.

[3] = tested on: vascular smooth muscle cells; conditions: ref [56]; cited from earlier work
Excerpt: as §1

Row | Molecule | KA (5′-biotinylated B-CpG; LRR11-B-CpG complex, KA = 1/KD) | −(Δfs)max (5′-biotinylated B-CpG; LRR11 to immobilized B-CpG, Langmuir fit, Hanks buffer, room temperature, LRR11 1-100 nM, three independent experiments) | effect on 5-LOX activity / leukotriene synthesis ([1]; ODN alone, 1 µM, 20 min, then opsonized S. typhimurium 15 min, Figure 1, five independent experiments in duplicate) | Σ 5-LOX metabolites ([1]; Table S1, 2×10^7 PMNLs, 15 min at 37 °C without or with 5 µM Chloroquine, then ODN, after 20 min 0.5×10^9 opsonized S. typhimurium for 15 min, mean ± SEM, three independent experiments) | degradation of RAGE receptor after RAGE binding (RAGE) | leukotriene production in human monocytes [2] | RAGE expression / LTB4 production in vascular smooth muscle cells [3]
1 | 5′-tcgtcgttttgtcgttttgtcgtt-3′ [B-CpG] | 0.018 ± 0.006 nM⁻¹ | 26.6 ± 3.8 Hz | increased leukotriene synthesis | 43.9 ± 4.1 ng/107 PMNLs | promoted rapid lysosomal degradation of the receptor |  | 
2 | B1 |  |  |  |  |  | induce leukotriene production in human monocytes through a RAGE-dependent pathway | enhanced RAGE expression along with an increase in LTB4 production
